Experimental data: patent US7989466B2, “Methods to inhibit or augment an inflammatory response” (Cambridge Enterprise Limited, priority 1999, dated 2011)
Positions of bridges follow the written chain, without caps; N, C: chain ends. Non-standard residues stand in square brackets, D forms with d. Residues, ends and D or L forms follow the SMILES beside them.

Key:
[1] = Stability against acid hydrolysis and trypsin; assay type: in vitro ADME; settings: 5 units trypsin for 2 hrs at 37° C.
Protocol: For example, to prepare a peptide 3 derivative, peptide 3(3-12)[MCP-1] was modified according to Jameson et al. (Nature, 368, 744 (1994)), which yielded CRD-Cys13Leu4Ile11peptide 3(3-12)[MCP-1] (FIG. 3). CRD-Cys13Leu4Ile11peptide 3(3-12)[MCP-1], which had very similar properties to peptide 3(1-12)[MCP-1] […] CRD-Cys13Leu4Ile11peptide 3(3-12)[MCP-1] was also resistant to hydrolysis in vivo and allowed therapeutically useful plasma concentrations to be achieved (>10 μM 24 hours after a single intraperitoneal dose of 1 mg of CRD-Cys13Leu4Ile11peptide 3(3-12)[MCP-1] in 250 μL saline).

[2] = tested on: T cell-dependent antibody response; experiment: Antibody response in mice immunized with sheep red blood cells; assay type: in vivo, mouse; settings: T cell-independent response not prevented

CC[C@@H](C)[C@H]1NC(=O)[C@@H](CCC(N)=O)NC(=O)[C@H](N)CSSC[C@H](C(N)=O)NC(=O)[C@@H](CC(C)C)NC(=O)[C@@H](CC(=O)O)NC(=O)[C@H]2CCCN2C(=O)[C@@H](CCCCN)NC(=O)[C@@H](CCC(N)=O)NC(=O)[C@@H](CCCCN)NC(=O)[C@@H](Cc2c[nH]c3ccccc23)NC1=O (H-[dC][dQ][dI][dW][dK][dQ][dK][dP][dD][dL][dC]-NH2; disulfide 1-11; N-terminus assumed)
stability against enzymatic destruction [1]: stable | T cell-dependent antibody response [2]: prevented
